Data as given in patent US20250213555A1, “SUBSTITUTED TETRAHYDROFURAN ANALOGS AS MODULATORS OF SODIUM CHANNELS” (VERTEX PHARMACEUTICALS INCORPORATED, priority 2021, published 2025).

The compounds below were run against human Nav 1.8 (Homo sapiens, UniProt Q9Y5Y9) (assay: E-VIPR assay detecting and measuring Nav inhibition properties). Settings: HEK cells expressing a truncated form of human Nav 1.8; assay performed in the presence of human serum (compound numbers followed by "*"); read-out: measured IC50 value in the E-VIPR Assay.
Chain of human Nav 1.8 (Q9Y5Y9 126-399 limits assumed): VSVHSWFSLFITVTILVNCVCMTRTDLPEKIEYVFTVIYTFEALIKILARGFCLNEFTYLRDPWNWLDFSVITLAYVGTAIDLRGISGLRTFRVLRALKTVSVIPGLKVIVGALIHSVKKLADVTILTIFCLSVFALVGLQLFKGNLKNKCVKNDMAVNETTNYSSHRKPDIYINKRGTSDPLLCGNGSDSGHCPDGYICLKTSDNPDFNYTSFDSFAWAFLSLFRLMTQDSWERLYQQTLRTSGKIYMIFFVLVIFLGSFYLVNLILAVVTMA
Chain of human Nav 1.8 (Q9Y5Y9 660-890 limits assumed): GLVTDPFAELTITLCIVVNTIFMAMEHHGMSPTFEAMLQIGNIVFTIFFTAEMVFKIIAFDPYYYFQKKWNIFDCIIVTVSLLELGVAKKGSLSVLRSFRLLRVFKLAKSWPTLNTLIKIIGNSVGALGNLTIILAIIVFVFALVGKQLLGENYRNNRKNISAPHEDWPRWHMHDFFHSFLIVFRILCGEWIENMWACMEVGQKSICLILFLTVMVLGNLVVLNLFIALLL
Chain of human Nav 1.8 (Q9Y5Y9 1148-1722 limits assumed): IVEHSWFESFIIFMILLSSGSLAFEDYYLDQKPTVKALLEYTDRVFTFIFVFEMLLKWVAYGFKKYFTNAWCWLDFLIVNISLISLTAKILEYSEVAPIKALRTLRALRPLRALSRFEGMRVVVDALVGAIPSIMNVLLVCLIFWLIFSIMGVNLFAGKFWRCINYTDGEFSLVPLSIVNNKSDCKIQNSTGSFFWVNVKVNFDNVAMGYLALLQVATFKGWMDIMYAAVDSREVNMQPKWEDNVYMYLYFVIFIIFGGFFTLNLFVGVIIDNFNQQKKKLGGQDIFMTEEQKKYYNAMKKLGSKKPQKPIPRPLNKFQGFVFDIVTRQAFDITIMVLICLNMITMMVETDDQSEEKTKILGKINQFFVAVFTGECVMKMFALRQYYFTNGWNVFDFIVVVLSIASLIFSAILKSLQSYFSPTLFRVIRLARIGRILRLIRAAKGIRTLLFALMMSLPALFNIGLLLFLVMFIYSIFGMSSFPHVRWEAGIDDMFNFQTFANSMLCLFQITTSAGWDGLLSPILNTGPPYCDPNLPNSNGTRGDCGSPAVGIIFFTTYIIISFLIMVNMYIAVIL
Format: cell-based
Text: E-VIPR Assay Detecting and Measuring Nav Inhibition Properties
Sodium ion channels are voltage-dependent proteins that can be activated by inducing membrane voltage changes by applying electric fields. The electrical stimulation instrument and methods of use, referred to as E-VIPR, are described in International Publication No. WO 2002/008748 A3 and C.-J. Huang et al. Characterization of voltage-gated sodium channel blockers by electrical stimulation and fluorescence detection of membrane potential, 24 Nature Biotech. 439-46 (2006), both of which are incorporated by reference in their entirety. The instrument comprises a microtiter plate handler, an optical system for exciting the coumarin dye while simultaneously recording the coumarin and oxonol emissions, a waveform generator, a current- or voltage-controlled amplifier, and parallel electrode pairs that are inserted into assay plate wells. Under integrated computer control, this instrument passes user-programmed electrical stimulus protocols to cells within the wells of the microtiter plate.
16-20 hours prior to running the assay on E-VIPR, HEK cells expressing a truncated form of human Nav 1.8 with full channel activity were seeded into microtiter 384-well plates, pre-coated with matrigel, at a density of 25,000 cells per well. 2.5-5% KIR2.1 Bacmam virus was added to the final cell suspension before seeding into cell plates. HEK cells were grown in Dulbecco's Modified Eagle's Medium (DMEM) supplemented with 10% FBS (Fetal Bovine Serum, qualified; Sigma #F4135), 1% NEAA (Non-Essential Amino Acids, Gibco #11140), 1% HEPES (Gibco #15630), 1% Pen-Strep (Penicillin-Streptomycin; Gibco #15140) and 5 μg/ml Blasticidin (Gibco #R^210-01). Cells were expanded in vented cap cell culture flasks, with 90-95% humidity and 5% CO2.
100 mg/mL Pluronic F-127 (Sigma #P2443), in dry DMSO
Compound Plates: Corning 384-well Polypropylene Round Bottom #3656
Cell Plates: 384-well tissue culture treated plates (Greiner #781091-2B)
2.5-5% KIR 2.1 Bacmam virus (produced in-house), prepared as described in Section 3.3 of J. A. Fornwald et al., Gene Expression in Mammalian Cells Using BacMam, a Modified Baculovirus System, 1350 Methods in Molecular Biology 95-116 (2016), the entire contents of which are incorporated by reference. The concentration used can be dependent on viral titer of each batch.
5 mM DiSBAC6(3), a voltage sensitive oxonol acceptor (CAS number 169211-44-3; 5-[3-(1,3-dihexylhexahydro-4,6-dioxo-2-thioxo-5-pyrimidinyl)-2-propen-1-ylidene]-1,3-dihexyldihydro-2-thioxo-4,6 (1H,5H)-pyrimidinedione), in dry DMSO. The preparation of DiSBAC6(3) is analogous to that of DiSBAC4(3) as described in Voltage Sensing by Fluorescence Resonance Energy Transfer in Single Cells, Gonzalez, J. E. and Tsien, R. Y. (1995) Biophys. J. 69, 1272-1280.
5 mM CC2-DMPE, a commercially available membrane-bound coumarin phospholipid FRET donor (ThermoFisher Scientific catalog number K1017, CAS number 393782-57-5; tetradecanoic acid, 1,1′-[(1R)-1-[8-(6-chloro-7-hydroxy-2-oxo-2H-1-benzopyran-3-yl)-3-hydroxy-3-oxido-8-oxo-2,4-dioxa-7-aza-3-phosphaoct-1-yl]-1,2-ethanediyl] ester) was prepared in dry DMSO. See also, Improved indicators of cell membrane potential that use fluorescence resonance energy transfer, Gonzalez, J. E. and Tsien, R. Y. (1997) Chem. Biol. 4, 269-277.
Voltage Assay Background Suppression Compound (VABSC-1) is prepared in H2O (89-363 mM, range used to maintain solubility)
Human Serum (HS, Millipore #S1P1-01KL, or Sigma SLBR5469V and SLBR5470V as a 50%/50% mixture, for 25% assay final concentration)
• Sodium Chloride 160 mM (9.35 g/L), Potassium Chloride, 4.5 mM (0.335 g/L), Glucose 10 mM (1.8 g/L), Magnesium Chloride (Anhydrous) 1 mM (0.095 g/L), Calcium Chloride 2 mM (0.222 g/L), HEPES 10 mM (2.38 g/L) in water. […]

IC50 [nM]	SMILES
100 to 1000	C[C@]1(C(F)(F)F)C[C@@H](c2ccc(F)c(F)c2OCCCO)[C@H](C(=O)Nc2ccnc(C(N)=O)c2)O1 (relative stereo) [Compound 35, rel-4-((2R,3S,5R)-3-(3,4-difluoro-2-(3-hydroxypropoxy)phenyl)-5-methyl-5-(trifluoromethyl)tetrahydrofuran-2-carboxamido)picolinamide]
≥ 1000	COCC[C@]1(C)C[C@@H](c2ccc(F)c(F)c2OC)[C@H](C(=O)Nc2ccnc(C(N)=O)c2)O1 (single isomer, unassigned) [Compound 30]
≥ 1000	Cc1c(F)ccc([C@H]2C[C@@](C)(C(F)(F)F)O[C@@H]2C(=O)Nc2ccnc(C(N)=O)c2)c1OCCO (single isomer, unassigned) [Compound 36]
100 to 1000	Cc1c(F)ccc([C@@H]2C[C@](C)(C(F)(F)F)O[C@H]2C(=O)Nc2ccnc(C(N)=O)c2)c1OCCO (single isomer, unassigned) [Compound 37]

Same assay, conditions: HEK cells expressing a truncated form of human Nav 1.8; compound numbers without "*" (not marked as run in the presence of human serum); read-out: measured IC50 value in the E-VIPR Assay

IC50 [nM]	SMILES
< 10	COCc1c([C@H]2[C@H](C(=O)Nc3ccnc(C(N)=O)c3)O[C@@](C)(C(F)(F)F)[C@H]2C)ccc(F)c1F (racemic) [Compound 145, rac-4-((2R,3S,4S,5R)-3-(3,4-difluoro-2-(methoxymethyl)phenyl)-4,5-dimethyl-5-(trifluoromethyl)tetrahydrofuran-2-carboxamido)picolinamide]
100 to 1000	CC(C)(O)COc1c([C@@H]2C[C@](C)(C(F)(F)F)O[C@H]2C(=O)Nc2ccnc(C(N)=O)c2)ccc(F)c1F (relative stereo) [Compound 32, rel-4-((2R,3S,5R)-3-(3,4-difluoro-2-(2-hydroxy-2-methylpropoxy)phenyl)-5-methyl-5-(trifluoromethyl)tetrahydrofuran-2-carboxamido) picolinamide]
10 to 100	C[C@]1(C(F)(F)F)C[C@@H](c2ccc(F)c(F)c2OCCO)[C@H](C(=O)Nc2ccnc(C(N)=O)c2)O1 (relative stereo) [Compound 33, rel-4-((2R,3S,5R)-3-(3,4-difluoro-2-(2-hydroxyethoxy)phenyl)-5-methyl-5-(trifluoromethyl)tetrahydrofuran-2-carboxamido)picolinamide]
< 10	COCCOc1c([C@@H]2C[C@](C)(C(F)(F)F)O[C@H]2C(=O)Nc2ccnc(C(N)=O)c2)ccc(F)c1F (relative stereo) [Compound 34, rel-4-((2R,3S,5R)-3-(3,4-difluoro-2-(2-methoxyethoxy)phenyl)-5-methyl-5-(trifluoromethyl)tetrahydrofuran-2-carboxamido)picolinamide]
< 10	C[C@H]1[C@@H](c2ccc(F)c(F)c2OCCN2C[C@@H]3C[C@H]2CO3)[C@H](C(=O)Nc2ccnc(C(N)=O)c2)O[C@@]1(C)C(F)(F)F (relative stereo) [Compound 46, rel-4-((2R*,3S*,4S*,5R*)-3-(2-(2-((1S,4S)-2-oxa-5-azabicyclo[2.2.1]heptan-5-yl)ethoxy)-3,4-difluorophenyl)-4,5-dimethyl-5-(trifluoromethyl)tetrahydrofuran-2-carboxamido)picolinamide]
10 to 100	C[C@H]1[C@@H](c2ccc(F)c(F)c2OCCN2C[C@H]3C[C@@H]2CO3)[C@H](C(=O)Nc2ccnc(C(N)=O)c2)O[C@@]1(C)C(F)(F)F (relative stereo) [Compound 47, rel-4-((2R*,3S*,4S*,5R*)-3-(2-(2-((1R,4R)-2-oxa-5-azabicyclo[2.2.1]heptan-5-yl)ethoxy)-3,4-difluorophenyl)-4,5-dimethyl-5-(trifluoromethyl)tetrahydrofuran-2-carboxamido)picolinamide]
10 to 100	C[C@H]1[C@@H](c2ccc(F)c(F)c2OC[C@H]2CC[C@H]2O)[C@H](C(=O)Nc2ccnc(C(N)=O)c2)O[C@@]1(C)C(F)(F)F (relative stereo) [Compound 99, rel-4-((2R*,3S*,4S*,5R*)-3-(3,4-difluoro-2-(((1R,2R)-2-hydroxycyclobutyl)methoxy)phenyl)-4,5-dimethyl-5-(trifluoromethyl)tetrahydrofuran-2-carboxamido)picolinamide]
< 10	COCCOc1c([C@H]2[C@H](C(=O)Nc3ccnc(C(N)=O)n3)O[C@@](C)(C(F)(F)F)[C@H]2C)ccc(F)c1C (single isomer, unassigned) [Compound 3]
≥ 1000	COCCOc1c([C@@H]2[C@@H](C(=O)Nc3ccnc(C(N)=O)n3)O[C@](C)(C(F)(F)F)[C@@H]2C)ccc(F)c1C (single isomer, unassigned) [Compound 4]
≥ 1000	COc1c(C2CC3(COC3)OC2C(=O)Nc2ccnc(C(N)=O)c2)ccc(F)c1C (single isomer, unassigned) [Compound 24]
≥ 1000	COCC1(C)CC(c2ccc(F)c(F)c2OC)C(C(=O)Nc2ccnc(C(N)=O)c2)O1 (single isomer, unassigned) [Compound 27]
100 to 1000	COCC1(C)CC(c2ccc(F)c(F)c2OC)C(C(=O)Nc2ccnc(C(N)=O)c2)O1 (single isomer, unassigned) [Compound 28]
≥ 1000	COCC1(C)CC(c2ccc(F)c(F)c2OC)C(C(=O)Nc2ccnc(C(N)=O)c2)O1 (single isomer, unassigned) [Compound 29]
100 to 1000	COCC[C@@]1(C)C[C@H](c2ccc(F)c(F)c2OC)[C@@H](C(=O)Nc2ccnc(C(N)=O)c2)O1 (single isomer, unassigned) [Compound 31]
< 10	C[C@H]1[C@@H](c2ccc(F)c(F)c2OC[C@H]2CCO2)[C@H](C(=O)Nc2ccnc(C(N)=O)c2)O[C@@]1(C)C(F)(F)F (single isomer, unassigned) [Compound 59, rel-4-((2R*,3S*,4S*,5R*)-3-(3,4-difluoro-2-((oxetan-2-yl)methoxy)phenyl)-4,5-dimethyl-5-(trifluoromethyl)tetrahydrofuran-2-carboxamido)picolinamide]
< 10	C[C@H]1[C@@H](c2ccc(F)c(F)c2OCC2CCOC2)[C@H](C(=O)Nc2ccnc(C(N)=O)c2)O[C@@]1(C)C(F)(F)F (single isomer, unassigned) [Compound 67]

SMILES	IC50 [nM]
CC[C@H](CO)COc1c([C@H]2[C@H](C(=O)Nc3ccnc(C(N)=O)c3)O[C@@](C)(C(F)(F)F)[C@H]2C)ccc(F)c1F (single isomer, unassigned) [Compound 92, rel-4-((2R*,3S*,4S*,5R*)-3-(3,4-difluoro-2-(2-(hydroxymethyl)butoxy)phenyl)-4,5-dimethyl-5-(trifluoromethyl)tetrahydrofuran-2-carboxamido)picolinamide]	10 to 100
CC[C@H](CO)COc1c([C@H]2[C@H](C(=O)Nc3ccnc(C(N)=O)c3)O[C@@](C)(C(F)(F)F)[C@H]2C)ccc(F)c1F (single isomer, unassigned) [Compound 93, rel-4-((2R*,3S*,4S*,5R*)-3-(3,4-difluoro-2-(2-(hydroxymethyl)butoxy)phenyl)-4,5-dimethyl-5-(trifluoromethyl)tetrahydrofuran-2-carboxamido)picolinamide]	< 10
